US8957184B2, “Pro-apoptotic peptides” (priority 2009, dated 2015)
Read-outs that look alike come from different tables or passages of the source. Ends that are not written are not given here.

Experiments:
[1] = system: Exponentially proliferating cells; experiment: Intracellular detection of biotinylated peptides (cell penetration); assay type: cell-based
Procedure: Exponentially proliferating cells were rinsed twice in PBS. A total of 6×10^4 cells per well were seeded in 24 well plates and incubated in RPMI-1640 at 37° C. After 24 h, biotinylated peptides were added and incubated with cells (4 h) for intracellular analysis. Cells were rinsed in PBS and fixed with 0.1% paraformaldehyde (PFA) for 10 min before adding […] of streptavidin-peroxidase. Then, cells were rinsed with PBS, incubated with di-amino-benzidyne (DAB) for 5 min, washed in PBS and analyzed by microscopy.

[2] = system: bone marrow B cells from CLL patients; experiment: Effect of DPT-C9h on bone marrow cells, CLL patients; assay type: cell-based, human
[3] = system: primary B cells from CLL patients; experiment: Effect of DPT-C9h on PBMC: B cells from CLL patients (annexin staining); assay type: cell-based, human
Procedure: PBMC (Peripheral Blood Mononuclear Cell) were isolated by Ficoll gradient centrifugation from healthy donors and CLL patients, cultured in complete RPMI medium and treated with 150 μM of DPT-C9h peptide. Upon 3 h of treatment, cells were washed and resuspended in complete RPMI medium. Apoptosis was estimated 6 h after washing using Annexin staining and specific markers for B cells (FIG. 4A), and for T, NK and monocytes (FIG. 4B). Apoptosis is represented as the percentage compared to cells treated with […].
PBMC were isolated by Ficoll gradient centrifugation from healthy donors and three different types of CLL patients: treated, non-treated and resistant. Cells were maintained in complete RPMI medium, treated with 150 μM of DPT-C9h peptide for 3 h and then washed and transferred to complete medium. Samples were analyzed at different times after washing. Apoptosis was estimated by annexin staining. The different populations were selected using specific markers. Apoptosis is represented as percentage compared to control non treated cells.
Mononuclear cells isolated from peripheral blood (PBMC) were prepared by Ficoll gradient centrifugation.
A total of 2.5×10^5 cells were washed with ice-cold PBS, diluted in ice-cold binding buffer and stained with annexin and propidium iodide (PI). Samples were maintained on ice for 10 min in the dark and then analyzed by flow cytometry.

Molecule | internalization of peptide ([1]; data not shown) | further results
VKKKKIKREIKILDESRAWQELIGDLTEIY [DPT-C9r, VKKKKIKREIKI-LDESRAWQELIGDLTEIY] | internalized | –
N=C(N)NCCC[C@H](NC(=O)[C@H](CCCNC(=N)N)NC(=O)[C@H](CCCNC(=N)N)NC(=O)[C@H](CCC(N)=O)NC(=O)[C@H](CCCNC(=N)N)NC(=O)[C@H](CCCNC(=N)N)NC(=O)[C@H](CCCCN)NC(=O)[C@H](CCCCN)NC(=O)[C@H](CCCNC(=N)N)NC(=O)CNC(=O)[C@@H](N)Cc1ccc(O)cc1)C(=O)O [Tat, YGRKKRRQRRR] | internalized | –
YIETLDGILEQWARSEDL [C9, YIETLDGILEQWARSEDL] | not internalized | –
VKKKKIKREIKIYVETLDGIFEQWAHSEDL [DPT-C9h, VKKKKIKREIKI-YVETLDGIFEQWAHSEDL] | – | cell penetrating activity [2]: cell penetrating; penetrating properties [3]: penetrating
VKKKKIKREIKIYIETLDGILEQWARSEDL [DPT-C9, VKKKKIKREIKI-YIETLDGILEQWARSEDL] | – | internalization of peptide [1]: internalized
VKKKKIKREIKI [DPT-sh1, VKKKKIKREIKI] | internalized | –
